Results on 4 compounds are retold here after patent publication US6372727B1, “Metalloporphyrin treatment of neurologic disease” (UAB Research Foundation, priority 1999, dated 2002).

The nature of assay [1]: Ascorbate oxidation by MPs monitored at 266 nm. Type of assay: biochemical. The settings on record: MP 10 μM, 50 μM ascorbate, 0.1 M potassium phosphate pH 7.4, ± standard error, n=3. On the procedure:
(§1) In order to test the hypothesis that Mn(II)- or Fe(II)-porphyrins would be capable of carrying out two-electron reductions of peroxynitrite and thereby decreasing rather than increasing its reactivity, attempts were made to pre-reduce these transition metal-containing MPs prior to addition of peroxynitrite.
Table V. Ascorbate oxidation by MPs. MPs (10 μM) were added to stirred cuvettes containing 0.1 M potassium phosphate, pH 7.4 and 50 μM ascorbate. Ascorbate oxidation was monitored at 266 nm (ηm=17,700 M^−1cm^−1). Oxidation rates (±standard errors) were determined by fitting the initial linear portion of each curve and averaging the rates (n=3).

Assay [2] is described as follows: Peroxynitrite-mediated nitration of GYA peptide. The note with it: 2 mM GYA, 10 μM MP, pH 7.4. It counts as biochemical. How it is done: Nitration efficiency, defined as the moles of nitrated GYA peptide formed per mole of peroxynitrite added, was determined at a fixed concentration of 10 μM MP or Cu,Zn SOD subunit, or 1 mM CO2 as described below. Increasing amounts of peroxynitrite were added in a sequential manner in order to determine whether nitration efficiency varied with concentration and to determine whether nitration catalysis was maintained with multiple additions (see INSET). Nitration efficiency was calculated for each peroxynitrite addition; the values shown are the average of all nine peroxynitrite additions. Absorbance changes were monitored simultaneously at 380, 430, and 460 nm.
(§2) For nitration of GYA peptide (see FIG. 6), reaction solutions contained 2 mM GYA and 10 μM of the indicated MP in 1.4 ml of 0.1 M potassium phosphate, pH 7.4 at 37° C. Comparisons with two previously characterized nitration catalysts, human Cu,Zn superoxide dismutase (hCu,Zn SOD) and carbon dioxide, were made using 10 μM of SOD subunit and 25 mM potassium bicarbonate, respectively, which was pH-adjusted to 7.4. This level of bicarbonate results in rapid saturation of the solution with carbon dioxide (˜1 mM). Solutions were placed into a rapidly stirred cuvette and nine bolus additions (50 μM×3, 100 μM×3, and 200 μM×3) of peroxynitrite were made sequentially while the absorbance was monitored. Increasing amounts of peroxynitrite were added in a sequential manner in order to determine whether nitration efficiency varied with concentration and to determine whether nitration catalysis was maintained with multiple additions (see FIG. 6 inset). Nitration efficiency was defined as the amount of nitropeptide formed per amount of peroxynitrite added and was calculated for each peroxynitrite addition; the values shown are the average of all nine peroxynitrite additions. The absorbance changes associated with nitrotyrosine peptide production were monitored simultaneously at 380, 430, and 460 nm. The extinction coefficients for nitrated GYA at pH 7.4 are 4,400 M^−1cm^−1 at 430 nm and 2,200 M^−1cm^−1 at both 380 and 460 nm. […] Wavelengths used to quantify nitrotyrosine production were chosen to minimize interference by the particular metalloporphyrin used. Experiments using HPA as a nitration target (FIG. 7) contained 8 mM HPA in either 0.1 M potassium phosphate, pH 7.4 or 0.1 M sodium borate, pH 9.1.
The relative abilities of several MPs to enhance nitration of the tripeptide GYA was compared using 10 μM MP and sequential bolus additions of 50 μM (×3), 100 μM (×3), and 200 μM (×3)peroxynitrite (FIG. 6, inset).

For assay [3] the following is noted: MP 5 μM, GSH 2 mM, 0.1 M potassium phosphate pH 7.4, 37° C. On the procedure:
Aliquots (14 μl) were removed at 10 min intervals and added to 1.4 of 0.1 M potassium phosphate, pH 7.4 containing 0.2 mM dithionitrobenzoic acid (Ellman's Reagent) and 50 μM EDTA. GSH concentration was determined by the change in 430 nm absorbance. The extinction coefficient at 430 nm was determined to be 13,900 M^−1cm^−1 using a fresh GSH solution standardized by weight.
as §1

The nature of assay [4]: Oxidation of metalloporphyrins by peroxynitrite, stopped-flow spectroscopy. It counts as biochemical. The settings on record: 37° C., 0.1 M potassium phosphate pH 7.4, pseudo-first order, ± standard error. On the procedure:
Peroxynitrite (in 10 mM NaOH) was rapidly mixed with the indicated MPs in 0.1 M potassium phosphate, pH 7.4 at 37° C. using a stopped-flow apparatus as described in Methods. […] A final concentration of 40 μM peroxynitrite was added to 8 μM of each of the MPs MnTBAP, MnPPIX, and FePPIX. […] INSET: Apparent rate constants for oxidation of 8 μM MnTBAP are plotted as a function of peroxynitrite concentration to illustrate how the rate constants listed in Table III were determined.
Rates of metal loporphyrin oxidation by peroxynitrite were determined using a Bio Sequential SX-18MV Applied Photophysics stopped-flow spectrofluorometer. Solutions of metalloporphyrins in 0.1 M potassium phosphate buffer, pH 7.4 were placed in one syringe and solutions of peroxynitrite in 10 mM NaOH were placed in a second syringe, both of which were submerged in a water bath at 37° C. Changes in metalloporphyrin absorbance as a function of time were recorded following triggering of syringe firing and solution mixing (instrument dead time=2 msec); a total of 1000 data points were collected over intervals ranging from 50 msec to 3 sec. […] Because the absorbance changes associated with loss of +3 forms were greater, rates of metalloporphyrin oxidation were determined by monitoring the disappearance of Mn(III)TMPyP at 462 nm, Mn(III)TBAP at 468 nm, Mn(III)PPIX at 466 nm, and Fe(III)PPIX at 464 nm. Absorbance changes as a function of time were fitted to the equation describing a first order process. The concentration of peroxynitrite was varied from five-fold to forty-fold greater than the fixed metalloporphyrin concentration in order to obtained pseudo first-order conditions (see Table III). Each concentration was injected 10 times and data were averaged automatically prior to fitting.
Rate constants for stoichiometric metalloporphyrin oxidation by peroxynitrite at 37° C. were determined under pseudo-first order reaction conditions by varying the amount of peroxynitrite added to a fixed concentration of metalloporphyrin (Table III).
In Table III, the rate of peroxynitrite-mediated oxidation of metalloporphyrins at 37° C. was determined. Apparent rate constants were determined by stopped-flow spectroscopy and plotted versus the peroxynitrite concentration (as shown for MnTBAP in FIG. 4 inset) to determine the bimolecular rate constant in M^−1s^−1±standard error. FePPIX was monitored at 387 nm, MnPPIX at 464 nm, and MnTBAP at 470 nm.

Assay [5] is described as follows: MP-catalyzed nitration of HPA: effect of pH, reductants and serum. It counts as biochemical. The settings on record: for enhancement of nitration yield at pH 9.1 / effect of ascorbate on nitration enhancement: 8 mM HPA, 10 μM MP; for enhancement of nitration yield at pH 9.1: 0.1 M sodium borate pH 9.1, versus non-catalyzed; for effect of ascorbate on nitration enhancement: ascorbate 150 μM, pH 7.4; for effect of ascorbate and GSH on nitration enhancement: concentrations which eliminated non-catalyzed nitration; for effect of serum on nitration enhancement: fresh human serum 1:10 added prior to peroxynitrite. How it is done:
Single additions of 100 μM peroxynitrite were made to reactions containing ascorbate or GSH. Three sequential additions of 100 μM peroxynitrite were made to all other reactions.
as §2, with “This” for “For nitration of GYA peptide (see FIG. 6), reaction solutions contained 2 mM GYA and 10 μM of the indicated MP in 1.4 ml of 0.1 M potassium phosphate, pH 7.4 at 37° C. Comparisons with two previously characterized nitration catalysts, human Cu,Zn superoxide dismutase (hCu,Zn SOD) and carbon dioxide, were made using 10 μM of SOD subunit and 25 mM potassium bicarbonate, respectively, which was pH-adjusted to 7.4. This”

Assay [6] is described as follows: MP-catalyzed peroxynitrite decomposition monitored at 302 nm. Type of assay: biochemical. The settings on record: 100 μM peroxynitrite. How it is done: Peroxynitrite (100 μM) was added to rapidly stirred cuvettes at 37° C. containing the indicated concentrations of MPs in 0.1 M potassium phosphate, pH 7.4. Ascorbate was added to 150 μM where indicated. Peroxynitrite decomposition was monitored at 302 nm using a Hewlett-Packard diode-array spectrophotometer. Apparent rates (kapparents^−1, average of n=3) were plotted versus MP concentration to determine rate constants in M^−1s^−1.
Reactions contained the indicated concentration of FeTCPPin 1.4 ml of 0.1 M potassium phosphate, pH 7.4 in the absence or presence to 150 μM ascorbic acid. Peroxynitrite (100 μM) was added to rapidly stirred cuvettes at 37° C. and the decay of peroxynitrite was monitored continuously at 302 nm. Decay data were fitted to the equation describing first order decay to obtain apparent decay rates (kapparent sec^−1). Apparent decay rates as a function of FeTCPP were fitted by linear regression and the rate constant was obtained slope of the line.
Peroxynitrite (100 μM) decomposition was determined at 302 nm using a Hewlett-Packard diode-array spectrophotometer fitted with a temperature-controlled cuvette chamber and a water-driven cuvette stirrer. Bolus additions of peroxynitrite were made to vigorously stirred cuvettes containing varying concentrations of MPs (see Table III) while data were collected at a rate of ten points/sec. […] Each reaction was repeated three times and only the first additions of peroxynitrite were averaged. Data were exported for fitting and plotting. Apparent rates of peroxynitrite decomposition were plotted as a function of metalloporphyrin concentration (as shown in FIG. 5) to determine concentration-independent rate constants at 37° C.
Rates of peroxynitrite (100 μM) decomposition were determined at different MP concentrations. Ascorbate was added to 150 μM where indicated. […] Apparent rate constants were plotted versus MP concentration (as in FIG. 5A,B) to determine true rate constants in M^−1s^−1±standard error.

Where “and” joins values, the source holds several entries; their conditions need not be identical. Identical values can stand only once.

`C[n+]1ccc(-c2c3nc(c(-c4cc[n+](C)cc4)c4ccc([n-]4)c(-c4cc[n+](C)cc4)c4nc(c(-c5cc[n+](C)cc5)c5ccc2[n-]5)C=C4)C=C3)cc1.Cc1ccc(S(=O)(=O)[O-])cc1.Cc1ccc(S(=O)(=O)[O-])cc1.Cc1ccc(S(=O)(=O)[O-])cc1.Cc1ccc(S(=O)(=O)[O-])cc1.[Cu+2]` [CuTMPyP, Copper (II) meso-tetra-(N-methyl-4-pyridyl)-porphine tetra tosylate]: in assay [1], the “Rate of Ascorbate Oxidation” value is 6.50 ± 0.32 µM/min. Further, the effect on nitration entry in assay [2] is recorded as “small but reproducible inhibitory effect”. Moreover, in assay [3], the “rate of GSH oxidation” value was 29 µM/min.
Turning to `C=CC1=C(C)c2cc3[n-]c(cc4[n-]c(cc5nc(cc1n2)C(C)=C5C=C)c(C)c4CCC(=O)[O-])c(CCC(=O)[O-])c3C.[H+].[H+].[Mn+2]` [MnPPIX, Manganese (III) protoporphyrin IX dichloride], the “Rate of Ascorbate Oxidation” value in assay [1] was found to be 0.96 ± 0.05 µM/min. Besides, in assay [4], the “Rate Constants for Oxidation of MPs by Peroxynitrite” value (“Rate Constants for Oxidation of MPs” for short) came to 99000 M⁻¹ s⁻¹. In addition, in assay [5], the “enhancement of nitration yield at pH 9.1” value is on record as “did not enhance nitration yields”; the “effect of ascorbate on nitration enhancement” value is listed as “pronounced inhibitory effect”; the “effect of ascorbate and GSH on nitration enhancement” value (from here on “effect of ascorbate and GSH”) is given as “largely prevented the enhancement of nitration”; the “effect of serum on nitration enhancement” value was “largely eliminated the nitration enhancement”.
Turning to `C=CC1=C(C)c2cc3[n-]c(cc4nc(cc5[n-]c(cc1n2)c(C)c5CCC(=O)O)C(CCC(=O)O)=C4C)c(C)c3C=C.[Fe]` [FePPIX, Iron (III) protoporphyrin IX dichloride], the “Rate of Ascorbate Oxidation” value in assay [1] is 1.33 ± 0.07 µM/min. Also, the “Rate Constants for Oxidation of MPs” value in assay [4] worked out at 1e+06 M⁻¹ s⁻¹. Moreover, in assay [5], the “enhancement of nitration yield at pH 9.1” value stood at 5.7 fold; the “effect of ascorbate and GSH” value is listed as “much less inhibitory effect”; the “effect of serum on nitration enhancement” value is reported as “largely eliminated the nitration enhancement”. The “Rate Constants for MP-Catalyzed Decomposition of Peroxynitrite (pH 7.4, 37° C.)” value (from here on “Rate Constants … (pH 7.4, 37° C.)”) in assay [6] (absence of added reductants) was 3.7×10^5 M^−1s^−1 and 3.7 × 10^5 ± 0.2 M^−1s^−1.
As to `O=C(O)c1ccc(-c2c3nc(c(-c4ccc(C(=O)O)cc4)c4ccc([n-]4)c(-c4ccc(C(=O)O)cc4)c4nc(c(-c5ccc(C(=O)O)cc5)c5ccc2[n-]5)C=C4)C=C3)cc1.[Mn+3]` [MnTBAP, Manganese (III) tetra-(4-benzoic acid)-porphyrin], the “Rate Constants for Oxidation of MPs” value in assay [4] was 25000 M⁻¹ s⁻¹. In assay [5], the “enhancement of nitration yield at pH 9.1” value is on record as “did not enhance nitration yields”; the “effect of ascorbate on nitration enhancement” value is “pronounced inhibitory effect”; the “effect of ascorbate and GSH” value is on record as “largely prevented the enhancement of nitration”; the “effect of serum on nitration enhancement” value is “largely eliminated the nitration enhancement”. For the same compound, the “Rate Constants … (pH 7.4, 37° C.)” value in assay [6] (absence of added reductants) is listed as “no acceleration”. In assay [6] (plus ascorbate 150 μM), the “Rate Constants … (pH 7.4, 37° C.)” value is 3.3 × 10^4 ± 0.4 M^−1s^−1.
